In this assay the target is T1, human recombinant GST-PAK1-KD protein (Homo sapiens, UniProt Q13153).
T1 construct: residues #249-545 of human PAK1, UniProtKP/Swiss Q13153; His6 (N); made in house; host or cells: Sf9 insect cells, pAcGP67 baculovirus expression vector
Kind of assay: GST-PAK1-KD (kinase domain) biochemical assay, microfluidic mobility shift. The note with it: PAK1 Ki class, read-out: Ki.

What is called Ki is a dissociation constant, usually derived from enzyme kinetics or from competition with a known ligand.

Structures can show the parent of a compound that is named as a salt. Where two headings read alike, the source gives them in different places. Where only a bound is given, the exact number is not on record here.

T1 sequence (Q13153 249-545): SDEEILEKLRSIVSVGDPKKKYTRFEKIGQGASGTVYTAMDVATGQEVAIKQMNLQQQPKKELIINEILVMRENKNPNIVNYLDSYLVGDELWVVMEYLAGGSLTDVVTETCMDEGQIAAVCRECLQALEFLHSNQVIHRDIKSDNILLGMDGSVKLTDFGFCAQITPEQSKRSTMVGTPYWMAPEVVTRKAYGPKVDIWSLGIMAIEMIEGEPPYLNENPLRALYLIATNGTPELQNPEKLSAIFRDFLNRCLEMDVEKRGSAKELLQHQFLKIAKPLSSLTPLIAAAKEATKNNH

With `CN(Cc1ccc2[nH]cnc2c1Cl)c1ncc(F)c(Nc2cc(C3COC3)[nH]n2)n1` [II-5, N^2-[(4-Chloro-1H-benzimidazol-5-yl)methyl]-5-fluoro-N^2-methyl-N^4-[5-(oxetan-3-yl)-1H-pyrazol-3-yl]pyrimidine-2,4-diamine], the Ki (Table II) was less than 50 nM.
As for `Fc1cnc(NCc2cccc3[nH]ccc23)nc1Nc1cc(C2CC2)[nH]n1` [I-120], the Ki (Table I) is 50 to 250 nM.
With `Fc1cc(CNc2nccc(Nc3cc([C@H]4C[C@@H]4F)[nH]n3)n2)c2cn[nH]c2c1` [II-60, N^2-((6-fluoro-1H-indazol-4-yl)methyl)-N^4-(5-((1R,2S)-2-fluorocyclopropyl)-1H-pyrazol-3-yl)pyrimidine-2,4-diamine], the Ki (Table II) was less than 50 nM.
Regarding `c1cc(CNc2nccc(Nc3cc(C4CCCC4)[nH]n3)n2)c2cc[nH]c2c1` [I-50, N^2-((1H-indol-4-yl)methyl)-N^4-(5-cyclopentyl-1H-pyrazol-3-yl)pyrimidine-2,4-diamine], the Ki (Table I) was in the range of 50 to 250 nM.
Take `Fc1cnc(NCc2cc(C(F)(F)F)cc3[nH]ncc23)nc1Nc1cc(C2CC2)[nH]n1` [II-109, N^4-(5-cyclopropyl-1H-pyrazol-3-yl)-5-fluoro-N^2-((6-(trifluoromethyl)-1H-indazol-4-yl)methyl)pyrimidine-2,4-diamine]: under “Table II”, the Ki lay in the range of 250 to 1000 nM.
With `CC(C)N(Cc1ccc2[nH]cnc2c1)c1nccc(Nc2cc(C3CC3)[nH]n2)n1` [II-26, N^2-((1H-Benzo[d]imidazol-5-yl)methyl)-N^4-(5-cyclopropyl-1H-pyrazol-3-yl)-N^2-isopropylpyrimidine-2,4-diamine], under “Table II”, the Ki is less than 50 nM.
As to `Clc1cc(CNc2nccc(Nc3cc(C4CC4)[nH]n3)n2)c2nc[nH]c2c1` [II-44, N^2-((6-Chloro-1H-benzo[d]imidazol-4-yl)methyl)-N^4-(5-cyclopropyl-1H-pyrazol-3-yl)-pyrimidine-2,4-diamine], for the setting “Table II”, the Ki was less than 50 nM.
`CN(C)CCN(Cc1cc(F)cc2[nH]ncc12)c1nccc(Nc2cc(C3CC3)[nH]n2)n1` [II-110, N^4-(5-cyclopropyl-1H-pyrazol-3-yl)-N^2-(2-(dimethylamino)ethyl)-N^2-((6-fluoro-1H-indazol-4-yl)methyl)pyrimidine-2,4-diamine]: under “Table II”, the Ki was less than 50 nM.
Consider `F[C@@H]1C[C@H]1c1cc(Nc2ccnc(NCc3ccc4[nH]cnc4c3Cl)n2)n[nH]1` [I-78, N^2-((4-chloro-1H-benzo[d]imidazol-5-yl)methyl)-N^4-(5-((1S,2R)-2-fluorocyclopropyl)-1H-pyrazol-3-yl)pyrimidine-2,4-diamine], for which the Ki (Table I) was less than 50 nM.
Consider `CN(Cc1c(F)ccc2[nH]ncc12)c1nccc(Nc2cc(C3CC3)[nH]n2)n1` [II-100, N^4-(5-cyclopropyl-1H-pyrazol-3-yl)-N^2-((5-fluoro-1H-indazol-4-yl)methyl)-N^2-methylpyrimidine-2,4-diamine], for which the Ki (Table II) is less than 50 nM.
Take `C[C@H](Nc1nccc(Nc2cc(C3CC(F)(F)C3)[nH]n2)n1)c1ccc2[nH]ccc2c1` [I-111, (S)—N^2-(1-(1H-indol-5-yl)ethyl)-N^4-(5-(3,3-difluorocyclobutyl)-1H-pyrazol-3-yl)pyrimidine-2,4-diamine]: the Ki (Table I) is less than 50 nM.
For the molecule `Clc1c(CNc2nccc(Nc3cc(C4CCCC4)[nH]n3)n2)ccc2[nH]cnc12` [I-107, N^2-((4-chloro-1H-benzo[d]imidazol-5-yl)methyl)-N^4-(5-cyclopentyl-1H-pyrazol-3-yl)pyrimidine-2,4-diamine], under “Table I”, the Ki is less than 50 nM.
For `CN(C)CCN(Cc1cccc2[nH]ccc12)c1nccc(Nc2cc(C3CC3)[nH]n2)n1` [II-89, N^2-((1H-indol-4-yl)methyl)-N^4-(5-cyclopropyl-1H-pyrazol-3-yl)-N^2-(2-(dimethylamino)ethyl)-pyrimidine-2,4-diamine], the Ki (Table II) was less than 50 nM.
For the molecule `C[C@H](Nc1nccc(Nc2cc(C3CC3(F)F)[nH]n2)n1)c1ccc2[nH]ccc2c1` (mixture of isomers) [I-66, N^2—((S)-1-(1H-indol-5-yl)ethyl)-N^4-(5-(2,2-difluorocyclopropyl)-1H-pyrazol-3-yl)pyrimidine-2,4-diamine], the Ki (Table I) lay in the range of 50 to 250 nM.
`C[C@H](Nc1nccc(Nc2cc([C@H]3C[C@@H]3F)[nH]n2)n1)c1ccc2[nH]cnc2c1` [I-70, N^2—((S)-1-(1H-benzo[d]imidazol-5-yl)ethyl)-N^4-(5-((1R,2S)-2-fluorocyclopropyl)-1H-pyrazol-3-yl)pyrimidine-2,4-diamine]: the Ki (Table I) was less than 50 nM.
In the case of `Fc1ccccc1[C@H]1C[C@@H]1c1cc(Nc2ccnc(NCc3cccc4[nH]ccc34)n2)n[nH]1` (racemic) [I-118, N^2-((1H-indol-4-yl)methyl)-N^4-(5-(trans-2-(2-fluorophenyl)cyclopropyl)-1H-pyrazol-3-yl)pyrimidine-2,4-diamine], where the note is “Table I”, the Ki lay within 250 to 1000 nM.
Consider `C[C@H](c1ccc2[nH]cnc2c1)N(C)c1nccc(Nc2cc(C3CC3)[nH]n2)n1` [I-55, (R)—N^2-(1-(1H-benzo[d]imidazol-5-yl)ethyl)-N^4-(5-cyclopropyl-1H-pyrazol-3-yl)-N^2-methylpyrimidine-2,4-diamine], for which, under “Table I”, the Ki lay within 50 to 250 nM.
Same read-out and setting: to `c1cc(CNc2nccc(Nc3cc(CC4CC4)[nH]n3)n2)c2cc[nH]c2c1` [I-48, N^2-((1H-indol-4-yl)methyl)-N^4-(5-(cyclopropylmethyl)-1H-pyrazol-3-yl)pyrimidine-2,4-diamine] belongs 50 to 250 nM; to `CN(Cc1ccc2[nH]cnc2c1)c1nccc(Nc2cc(C3CC3)[nH]n2)n1` [I-12, N^2-((1H-Benzo[d]imidazol-5-yl)methyl)-N^4-(5-cyclopropyl-1H-pyrazol-3-yl)-N^2-methylpyrimidine-2,4-diamine], less than 50 nM; to `Fc1cc(CNc2ncc(F)c(Nc3cc(C4CCC4)[nH]n3)n2)c2cc[nH]c2c1` [I-90, N^4-(5-Cyclobutyl-1H-pyrazol-3-yl)-5-fluoro-N^2-((6-fluoro-1H-indol-4-yl)methyl)pyrimidine-2,4-diamine formate], 250 to 1000 nM.
For the molecule `C[C@H](Nc1nccc(Nc2cc(C3CC3)[nH]n2)n1)c1cc(F)cc2[nH]cnc12` [II-18, (S)-N^4-(5-cyclopropyl-1H-pyrazol-3-yl)-N^2-(1-(6-fluoro-1H-benzo[d]imidazol-4-yl)ethyl)pyrimidine-2,4-diamine], the Ki (Table II) was less than 50 nM.
Turning to `c1cc(Nc2cc(C3CC3)[nH]n2)nc(N(Cc2ccc3[nH]cnc3c2)C2CCNCC2)n1` [II-90, N^2-((1H-benzo[d]imidazol-5-yl)methyl)-N^4-(5-cyclopropyl-1H-pyrazol-3-yl)-N^2-(piperidin-4-yl)pyrimidine-2,4-diamine], the inhibitory constant (Ki) (Table II) is less than 50 nM.
For the molecule `C[C@H](O)CN(Cc1cc(F)cc2[nH]ncc12)c1nccc(Nc2cc(C3CC3)[nH]n2)n1` [II-72, (S)-1-((4-((5-cyclopropyl-1H-pyrazol-3-yl)amino)pyrimidin-2-yl)((6-fluoro-1H-indazol-4-yl)methyl)amino)propan-2-ol], for the setting “Table II”, the Ki was less than 50 nM.
Turning to `Fc1cc(CNc2nccc(Nc3cc(C4CC4)[nH]n3)n2)c2cn[nH]c2c1` [II-52, N^4-(5-cyclopropyl-1H-pyrazol-3-yl)-N^2-((6-fluoro-1H-indazol-4-yl)methyl)pyrimidine-2,4-diamine], the Ki (Table II) was less than 50 nM.
With `Cc1c[nH]c2cccc(CNc3nccc(Nc4cc(C5CC5)[nH]n4)n3)c12` [I-92, N^4-(5-Cyclopropyl-1H-pyrazol-3-yl)-N^2-((3-methyl-1H-indol-4-yl)methyl)pyrimidine-2,4-diamine], for the setting “Table I”, the Ki was less than 50 nM.
Take `Cc1cc(Nc2ccnc(NCc3cccc4[nH]ccc34)n2)n[nH]1` [I-56, N^2-((1H-indol-4-yl)methyl)-N^4-(5-methyl-1H-pyrazol-3-yl)pyrimidine-2,4-diamine]: under “Table I”, the Ki was greater than 1000 nM.
`C[C@H](Nc1nccc(Nc2cc(C3CC3)[nH]n2)n1)c1cc(F)cc2[nH]ncc12` [II-53, (S)-N^4-(5-cyclopropyl-1H-pyrazol-3-yl)-N^2-(1-(6-fluoro-1H-indazol-4-yl)ethyl)pyrimidine-2,4-diamine]: the Ki (Table II) is less than 50 nM.
The same measure, in the same setting: as for `COc1n[nH]c2cccc(CNc3nccc(Nc4cc(C5CC5)[nH]n4)n3)c12` [II-22, N^4-(5-Cyclopropyl-1H-pyrazol-3-yl)-N^2-((3-methoxy-1H-indazol-4-yl)methyl)pyrimidine-2,4-diamine], the figure is less than 50 nM; as for `Fc1cnc(NCc2cc(Cl)cc3[nH]ncc23)nc1Nc1cc(C2CC2)[nH]n1` [II-57, N^2-((6-chloro-1H-indazol-4-yl)methyl)-N^4-(5-cyclopropyl-1H-pyrazol-3-yl)-5-fluoropyrimidine-2,4-diamine], less than 50 nM.
As to `CC(C)(Nc1nccc(Nc2cc(C3CC3)[nH]n2)n1)c1ccc2[nH]cnc2c1` [I-17, N^2-(2-(1H-Benzo[d]imidazol-5-yl)propan-2-yl)-N^4-(5-cyclopropyl-1H-pyrazol-3-yl)pyrimidine-2,4-diamine], the Ki (Table I) fell in the range of 50 to 250 nM.
Still for that read-out and setting: to `Fc1cc(CNc2nccc(Nc3cc(C4CCC4)[nH]n3)n2)c2cc[nH]c2c1` [I-88, N^4-(5-Cyclobutyl-1H-pyrazol-3-yl)-N^2-((6-fluoro-1H-indol-4-yl)methyl)pyrimidine-2,4-diamine Formate] belongs less than 50 nM.
`Cc1cc(Nc2nc(N(C)Cc3ccc4[nH]cnc4c3Cl)ncc2F)n[nH]1` [II-91, N^2-((4-chloro-1H-benzo[d]imidazol-5-yl)methyl)-5-fluoro-N^2-methyl-N^4-(5-methyl-1H-pyrazol-3-yl)pyrimidine-2,4-diamine]: under “Table II”, the inhibitory constant (Ki) was less than 50 nM.
Consider `C[C@H](Nc1nccc(Nc2cc([C@@H]3C[C@H]3F)[nH]n2)n1)c1ccc2[nH]cnc2c1` [I-69, N^2—((S)-1-(1H-benzo[d]imidazol-5-yl)ethyl)-N^4-(5-((1S,2R)-2-fluorocyclopropyl)-1H-pyrazol-3-yl)pyrimidine-2,4-diamine], for which, where the note is “Table I”, the Ki was less than 50 nM.
On to `Cc1cc(CNc2nccc(Nc3cc(C4CC4)[nH]n3)n2)c2cn[nH]c2c1` [II-13, N^4-(5-Cyclopropyl-1H-pyrazol-3-yl)-N^2-((6-methyl-1H-indazol-4-yl)methyl)pyrimidine-2,4-diamine], for which the Ki (Table II) is less than 50 nM.
